{
  "source": "paper PMC11992225",
  "about": "“Antibacterial compounds against non-growing and intracellular bacteria” (npj Antimicrobials and Resistance, 2025)",
  "key": {"S. aureus DSM2569": {"tested_on": "S. aureus DSM2569", "test": "MIC, standard microdilution assay, growing S. aureus", "format": "cell-based, Staphylococcus aureus", "conditions": "Staphylococcus aureus, DSM2569; S. aureus; CA-MHB pH 7.4; read-out: MIC (μM) CA-MHB", "summary_of_the_method": "(§1)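 MICs come from microdilution in CA-MHB/40 mM HEPES pH 7.4 for the UPEC, Pseudomonas and Staphylococcus strains, and in TSB for Shigella. UPEC also tested in LPM/30 mM MES pH 5.5.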"}, "[1]": {"tested_on": "intracellular S. flexneri 5a M90T in TC7 cells", "test": "microbe, parasite or virus in culture", "format": "cell-based, Shigella flexneri"}, "E. coli CFT073 (UPEC)": {"tested_on": "E. coli CFT073 (UPEC)", "test": "MIC, standard microdilution assay, growing UPEC", "format": "cell-based, Escherichia coli", "conditions": "Escherichia coli, E. coli", "summary_of_the_method": "as §1"}, "non-growing UPEC CFT073": {"tested_on": "non-growing UPEC CFT073", "test": "Dose-dependent killing analysis (CFU spot-plating) of stationary-phase UPEC", "format": "cell-based, Escherichia coli", "summary_of_the_method": "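Non-growing (stationary-phase) UPEC CFT073 treated with compounds in 96-well format at 200 μl, then 10-fold serially diluted in PBS and 10 μl spots plated on LB agar. Plates incubated overnight at 37 °C; colonies counted at lowest resolvable dilution to give CFU. Three biological replicates.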"}},
  "note": "Where “and” joins values, the source holds several entries; their conditions need not be identical. Identical values can stand only once. Like-named read-outs stand apart in the source and are kept apart here.",
  "data": [
    {"smiles": "O=C(O)c1cn(-c2ccc(F)cc2)c2cc(N3CCNCC3)c(F)cc2c1=O", "note": "[Sarafloxacin]", "values": [
      {"measurement": "MIC", "setting": "S. aureus DSM2569", "value": 1, "unit": "µM"},
      {"measurement": "IC50", "setting": "[1]; Shigella flexneri, TC7, 14 h", "value": 114, "unit": "nM"},
      {"measurement": "Fluorescence intensity (RFU), Mean, 2 x MIC", "setting": "[1]; TC7 cells infected with GFP-expressing S. flexneri, 14 h treatment, 2 x MIC", "value": 5001.97, "unit": "RFU"},
      {"measurement": "Fluorescence intensity (RFU), Mean, 4 x MIC", "setting": "[1]; TC7 cells infected with GFP-expressing S. flexneri, 14 h treatment, 4 x MIC", "value": 3626.47, "unit": "RFU"},
      {"measurement": "Fluorescence intensity (RFU), Mean, 8 x MIC", "setting": "[1]; TC7 cells infected with GFP-expressing S. flexneri, 14 h treatment, 8 x MIC", "value": 3165.28, "unit": "RFU"},
      {"measurement": "Fluorescence intensity (RFU), Mean, 16 x MIC", "setting": "[1]; TC7 cells infected with GFP-expressing S. flexneri, 14 h treatment, 16 x MIC", "value": 2660.39, "unit": "RFU"},
      {"measurement": "Fluorescence intensity (RFU), Mean, 32 x MIC", "setting": "[1]; TC7 cells infected with GFP-expressing S. flexneri, 14 h treatment, 32 x MIC", "value": 2149.72, "unit": "RFU"},
      {"measurement": "Fluorescence intensity (RFU), Mean, MIC", "setting": "[1]; TC7 cells infected with GFP-expressing S. flexneri, 14 h treatment, MIC", "value": 7309.11, "unit": "RFU"},
      {"measurement": "MIC", "setting": "E. coli CFT073 (UPEC); LPM pH 5.5, read-out: MIC", "value": 0.5, "unit": "µM"},
      {"measurement": "MIC", "setting": "E. coli CFT073 (UPEC); pH 7.4, CA-MHB, read-out: MIC (μM) CA-MHB", "value": 0.05, "unit": "µM"},
      {"measurement": "killing, average Δlog10(CFU/ml)", "setting": "non-growing UPEC CFT073; E. coli in 1:4 CA-MHB (pH 7.4), drug concentration 0.25", "value": "0.025 log10(CFU/ml)"},
      {"measurement": "log10(CFU/ml) of treated nongrowing bacteria (single replicates)", "setting": "non-growing UPEC CFT073; E. coli in 1:4 CA-MHB (pH 7.4), drug concentration 0.25, before treatment 8.977", "value": "9.301 log10(CFU/ml) and 8.477 log10(CFU/ml) and 9.079 log10(CFU/ml)"},
      {"measurement": "killing, average Δlog10(CFU/ml)", "setting": "non-growing UPEC CFT073; E. coli in 1:4 CA-MHB (pH 7.4), drug concentration 0.5", "value": "0.172 log10(CFU/ml)"},
      {"measurement": "log10(CFU/ml) of treated nongrowing bacteria (single replicates)", "setting": "non-growing UPEC CFT073; E. coli in 1:4 CA-MHB (pH 7.4), drug concentration 0.5, before treatment 8.977", "value": "9.000 log10(CFU/ml) and 8.954 log10(CFU/ml) and 8.462 log10(CFU/ml)"},
      {"measurement": "killing, average Δlog10(CFU/ml)", "setting": "non-growing UPEC CFT073; E. coli in 1:4 CA-MHB (pH 7.4), drug concentration 1", "value": "0.391 log10(CFU/ml)"},
      {"measurement": "log10(CFU/ml) of treated nongrowing bacteria (single replicates)", "setting": "non-growing UPEC CFT073; E. coli in 1:4 CA-MHB (pH 7.4), drug concentration 1, before treatment 8.977", "value": "9.114 log10(CFU/ml) and 8.532 log10(CFU/ml) and 8.114 log10(CFU/ml)"},
      {"measurement": "killing, average Δlog10(CFU/ml)", "setting": "non-growing UPEC CFT073; E. coli in 1:4 CA-MHB (pH 7.4), drug concentration 2.5", "value": "1.103 log10(CFU/ml)"},
      {"measurement": "log10(CFU/ml) of treated nongrowing bacteria (single replicates)", "setting": "non-growing UPEC CFT073; E. coli in 1:4 CA-MHB (pH 7.4), drug concentration 2.5, before treatment 8.977", "value": "8.398 log10(CFU/ml) and 7.903 log10(CFU/ml) and 7.322 log10(CFU/ml)"},
      {"measurement": "killing, average Δlog10(CFU/ml)", "setting": "non-growing UPEC CFT073; E. coli in 1:4 CA-MHB (pH 7.4), drug concentration 5", "value": "1.741 log10(CFU/ml)"},
      {"measurement": "log10(CFU/ml) of treated nongrowing bacteria (single replicates)", "setting": "non-growing UPEC CFT073; E. coli in 1:4 CA-MHB (pH 7.4), drug concentration 5, before treatment 8.977", "value": "7.491 log10(CFU/ml) and 7.176 log10(CFU/ml) and 7.041 log10(CFU/ml)"},
      {"measurement": "killing, average Δlog10(CFU/ml)", "setting": "non-growing UPEC CFT073; E. coli in 1:4 CA-MHB (pH 7.4), drug concentration 10", "value": "2.143 log10(CFU/ml)"},
      {"measurement": "log10(CFU/ml) of treated nongrowing bacteria (single replicates)", "setting": "non-growing UPEC CFT073; E. coli in 1:4 CA-MHB (pH 7.4), drug concentration 10, before treatment 8.977", "value": "7.279 log10(CFU/ml) and 6.845 log10(CFU/ml) and 6.380 log10(CFU/ml)"},
      {"measurement": "killing, average Δlog10(CFU/ml)", "setting": "non-growing UPEC CFT073; E. coli in LPM (pH 5.5), drug concentration 0.25", "value": "0.072 log10(CFU/ml)"},
      {"measurement": "log10(CFU/ml) of treated nongrowing bacteria (single replicates)", "setting": "non-growing UPEC CFT073; E. coli in LPM (pH 5.5), drug concentration 0.25, before treatment 7.350", "value": "7.079 log10(CFU/ml) and 6.477 log10(CFU/ml) and 8.279 log10(CFU/ml)"},
      {"measurement": "killing, average Δlog10(CFU/ml)", "setting": "non-growing UPEC CFT073; E. coli in LPM (pH 5.5), drug concentration 0.5", "value": "0.127 log10(CFU/ml)"},
      {"measurement": "log10(CFU/ml) of treated nongrowing bacteria (single replicates)", "setting": "non-growing UPEC CFT073; E. coli in LPM (pH 5.5), drug concentration 0.5, before treatment 7.350", "value": "6.778 log10(CFU/ml) (2×) and 8.114 log10(CFU/ml)"},
      {"measurement": "killing, average Δlog10(CFU/ml)", "setting": "non-growing UPEC CFT073; E. coli in LPM (pH 5.5), drug concentration 1", "value": "0.084 log10(CFU/ml)"},
      {"measurement": "log10(CFU/ml) of treated nongrowing bacteria (single replicates)", "setting": "non-growing UPEC CFT073; E. coli in LPM (pH 5.5), drug concentration 1, before treatment 7.350", "value": "6.477 log10(CFU/ml) and 7.146 log10(CFU/ml) and 8.176 log10(CFU/ml)"},
      {"measurement": "killing, average Δlog10(CFU/ml)", "setting": "non-growing UPEC CFT073; E. coli in LPM (pH 5.5), drug concentration 2.5", "value": "0.011 log10(CFU/ml)"},
      {"measurement": "log10(CFU/ml) of treated nongrowing bacteria (single replicates)", "setting": "non-growing UPEC CFT073; E. coli in LPM (pH 5.5), drug concentration 2.5, before treatment 7.350", "value": "7.114 log10(CFU/ml) and 7.000 log10(CFU/ml) and 7.903 log10(CFU/ml)"},
      {"measurement": "killing, average Δlog10(CFU/ml)", "setting": "non-growing UPEC CFT073; E. coli in LPM (pH 5.5), drug concentration 5", "value": "-0.00245 log10(CFU/ml)"},
      {"measurement": "log10(CFU/ml) of treated nongrowing bacteria (single replicates)", "setting": "non-growing UPEC CFT073; E. coli in LPM (pH 5.5), drug concentration 5, before treatment 7.350", "value": "6.903 log10(CFU/ml) and 7.114 log10(CFU/ml) and 8.041 log10(CFU/ml)"},
      {"measurement": "killing, average Δlog10(CFU/ml)", "setting": "non-growing UPEC CFT073; E. coli in LPM (pH 5.5), drug concentration 10", "value": "0.353 log10(CFU/ml)"},
      {"measurement": "log10(CFU/ml) of treated nongrowing bacteria (single replicates)", "setting": "non-growing UPEC CFT073; E. coli in LPM (pH 5.5), drug concentration 10, before treatment 7.350", "value": "6.699 log10(CFU/ml) and 6.845 log10(CFU/ml) and 7.447 log10(CFU/ml)"}
    ]}
  ]
}
